From patent US7135625B2, “Gene concerning brassinosteroid-sensitivity of plants and utilization thereof” (National Institute of Agrobiological Sciences, priority 2000, dated 2006) come the findings set out here.

Assay type in all cases: in vivo, Oriza sativa
The subject of experiment [1] is wild type plants (rice seedlings). The experiment is described as follows: Germination of seeds on agar plates with or without brassinolide, wild type. Conditions: 1 μM brassinolide on agar plates, observed 1 day after germination. The procedure:
(§1) Rice (Oriza sativa) seeds were soaked in distilled water and made to imbibe for 48 h at 30° C. After washing the seeds with distilled water several times, the seeds were germinated in a dark chamber at 30° C. for 8 days. Rice plants were grown in the field or in the greenhouse at 30° C. (day) and 24° C. (night).
(§2) Next, seeds of the wild type and mutant plants were germinated on agar plates with or without 1 μM brassinolide. The characteristics of whole seedlings were observed 1 day after germination.

In experiment [2] the test system is d61-1 mutant and d61-2 mutant. The experiment in a line: Lamina joint test, d61 mutants. The text has this:
(§3) The degree of bending between the leaf blade and leaf sheath in rice is well known to be sensitive to the concentration of brassinolide or its related compounds. This unusual character of rice leaf is the basis for a quantitative bioassay for brassinosteroids, known as the lamina joint test (Wada, Ketal. (1981) Plant and Cell Physiol. 22, 323–325), even though the biological function of endogenous brassinosteroids in monocotyledonous plants including rice remains unknown. If the mutants are less sensitive to brassinosteroids, the degree of bending between the leaf blade and sheath of the mutant plants will be less than that of the wild type plants.
(§4) Lamina joints of first leave of wild type T65 plant (the background strain of the mutants), d61-1 mutant, and d61-2 mutant were tested with 10^−3 and 10^−2 μg/ml of brassinosteroids, respectively.

The next experiment has as its system d61 mutants. The experiment is described as follows: Restoration of dwarfism of d61 mutants by application of brassinolide.
In a further experiment the test system is wild type T65 plant. The experiment in a line: Lamina joint test, wild type. The conditions noted are these: wild type T65, first leaf, 10^−3 and 10^−2 μg/ml.
Excerpt: as §3, §4

In another experiment the test system is OsBRI1 mRNA. The experiment is described as follows: Effect of exogenous brassinolide on the level of OsBRI1 mRNA (RNA hybridization). Conditions: light- and dark-grown seedlings, 0.9% agar plates with 1 μM brassinolide, six days. The text has this: RNA was isolated from various rice tissues as described in literature (Chomczynski, P. and Sacchi, N.: Anal. Biochem. (1987) 162:156). Ten μg of total RNA were electrophoresed in a 1% agarose gel, then transferred to a Hybond N^+ membrane (Amersham), and analyzed by RNA gel blot hybridization. The present inventors used a partial cDNA fragment (Ser^740 to Asp^1116 corresponding to the kinase domain), as a probe which specifically hybridized to the genomic DNA fragment encoding OsBRI1. DNA hybridization analysis was performed with the same probe and hybridization conditions as described above.
The present inventors also tested the effects of exogenously applied brassinolide and light on the level of OsBRI1 mRNA. Germinating seeds were placed on 0.9% agar plates with or without 1 μM brassinolide and grown for six days in the light or dark.

The test system of experiment [3] is d61-1 and d61-2 mutant seedlings. The experiment in a line: Germination of seeds on agar plates with or without brassinolide, d61 mutants. The conditions noted are these: 1 μM brassinolide on agar plates, observed 1 day after germination. The procedure: as §1, §2

Consider `CC(C)[C@H](C)[C@@H](O)[C@H](O)[C@@H](C)[C@H]1CC[C@H]2[C@@H]3COC(=O)[C@H]4C[C@H](O)[C@H](O)C[C@]4(C)[C@H]3CC[C@]12C` [brassinolide], for which the “growth of seedlings (coleoptile, foliage leaves)” value was “elongated abnormally” in experiment [1] and “induced abnormal growth” in experiment [1] (listed as BL). For the same compound, the root elongation entry in experiment [1] is reported as “inhibited”. Moreover, the “degree of bending between leaf blade and leaf sheath” value is recorded as “degree of bending increased” in experiment [2] (d61-1 and d61-2 mutants, first leaf, 10^−3 and 10^−2 μg/ml); “bent at less than a right angle” in experiment [2] (d61-2 mutant, 10^−2 μg/ml brassinolide); “even more bent” in the experiment on wild type T65 plant. In addition, in the experiment on d61 mutants, the “restoration of the dwarfism of the d61 mutants” value was “could not be achieved”. Further, in the experiment on OsBRI1 mRNA, the “level of OsBRI1 expression” value is “reduced level of OsBRI1 expression”. The growth of seedlings entry in experiment [3] is listed as “normal growth patterns”; in experiment [3] (listed as BL), “not affected”.
